What was measured:
Assay type in all cases: in vivo
Blattalla germanica = assay: Test Example 5: filter paper/sucrose bait test on Blattalla germanica; details: for pest or weed control at 500 ppm: 144 h, read-out: pest death rate
Experimental: A formulation of any one of the present compounds (4), (5), (7), (12), (13), (18t), (18c), (22), (25t), (25c), (26t), (26c), (29), (30), (31), (32), (33), (34), (40), (41), (43), (49) and (55) obtained according to Formulation Example 36 was diluted with water so that the active ingredient concentration was 500 ppm to obtain a test solution.
(§1) A filter paper having a diameter of 5.5 cm was spread on the bottom of a polyethylene cup having a diameter of 5.5 cm and 0.7 ml of the test solution was added dropwise onto the filter paper. As a bait 30 mg of sucrose was uniformly placed on the filter paper. Into the polyethylene cup, 2 male imagoes of Blattalla germanica were released and the cup was sealed with a lid. After 6 days, the number of surviving Blattalla germanica was examined and the death rate of the pest was calculated.

[1] = test system: Haemaphysalis longicornis; assay: Test Example 7: treated filter paper pouch test on ticks; details: filter paper treated with 100 mg/m^2, non-blood-sucking nymphal ticks, 10 ticks/group, two days after; for pest or weed control at 100 mg/m2: Haemaphysalis longicornis, 48 h, read-out: pest death rate
Experimental: Five milligrams of any one of the present compounds (4), (7), (18t), (22), (25t), (26t), (29), (30), (31), (32), (33), (34), (35), (40), (41), (42), (43), (44) and (55) was dissolved in 10 mL of acetone. One milliliter of the acetone solution was uniformly applied on one side of a filter paper (TOYO No. 2; 5×10 cm), so that the filter paper having a surface area of 50 cm^2 was treated with 100 mg/m^2 of the present compound. After drying, the filter paper was folded in two and its edges were clipped to make a pouch. Test ticks (non-blood-sucking nymphal ticks, Haemaphysalis longicornis, 10 ticks/group) were put into the pouch, and the pouch was sealed with clips. Two days after, the number of surviving ticks was examined and the death rate was calculated.

Musca domestica = assay: Test Example 4: filter paper/sucrose bait test on Musca domestica; details: 24 h, read-out: pest death rate
Experimental: A formulation of any one of the present compounds (1), (4), (5), (7), (11), (12), (13), (18t), (18c), (19), (20), (21), (22), (24), (25t), (25c), (26t), (26c), (27), (29), (30), (31), (32), (33), (34), (35), (40), (41), (43), (49), (50) and (55) obtained according to Formulation Example 36 was diluted with water so that the active ingredient concentration was 500 ppm to obtain a test solution.
as §1, with “10 female” for “2 male”, “Musca domestica” for “Blattalla germanica”, “24 hours,” for “6 days,”

Culex pipiens pallens = assay: Test Example 6: larvae of Culex pipiens pallens in treated water; details: 24 h, read-out: pest death rate
Experimental: A formulation of any one of the present compounds (7), (11), (12), (13), (17), (18t), (18c), (22), (24), (25t), (25c), (26t), (26c), (27), (29), (33), (34), (35), (36), (38), (40), (41), (43), (47), (49), (50) and (55) obtained according to Formulation Example 36 was diluted with water so that the active ingredient concentration was 500 ppm to obtain a test solution.
To 100 mL of ion-exchanged water, 0.7 ml of the test solution was added (active ingredient concentration: 3.5 ppm). Into the solution, 20 last-instar larvae of Culex pipiens pallens were released. One day after, the number of surviving Culex pipiens pallens was examined and the death rate of the pest was calculated.

| Compound | pest death rate (Blattalla germanica; 500 ppm, 0.7 ml on filter paper, 2 male imagoes of Blattalla germanica, after 6 days) [%] | pest death rate [1] [%] | pest or weed control at 500 ppm (Blattalla germanica) [%] | pest or weed control at 100 mg/m2 [1] [%] | pest or weed control at 500 ppm (Musca domestica) [%] | pest or weed control at 3.5 ppm (Culex pipiens pallens) [%] |
| --- | --- | --- | --- | --- | --- | --- |
| C=CC(C)C(C#N)(C1CCC(=NOC)CC1)S(=O)(=O)CCC(F)(F)F (stereo not drawn) [present compound (43), 2-[4-(methoxyimino)cyclohexyl]-3-methyl-2-(3,3,3-trifluoropropylsufonyl)-4-pentenenitrile] | 100 | 90 |  |  |  |  |
| O=S(=O)(CCC(F)(F)F)CC1CCC(F)(F)CC1 [present compound (4), 1,1-difluoro-4-(3,3,3,-trifluoropropylsulfonylmethyl)cyclohexanone] |  |  | 100 | 90 | ≥ 90 |  |
| N#CC(C1CCC(=NO)CC1)S(=O)(=O)CCC(F)(F)F (stereo not drawn) [present compound (34), 2-[4-(hydroxyimino)cyclohexyl]-2-(3,3,3-trifluoropropylsulfonyl)acetonitrile] |  |  | 100 | 90 | ≥ 90 | ≥ 95 |
| CON=C1CCC(C(C)(C#N)S(=O)(=O)CCC(F)(F)F)CC1 (stereo not drawn) [present compound (40), 2-[4-(methoxyimino)cyclohexyl]-2-(3,3,3-trifluoropropylsulfonyl)propionitrile] |  |  | 100 | 90 | ≥ 90 | ≥ 95 |
| C#CC1CCC(CS(=O)(=O)CCC(F)(F)F)CC1 (stereo not drawn) [present compound (18t), 1-ethynyl-4-(3,3,3-trifluoropropylsulfonylmethyl)cyclohexane] |  |  | 100 | 90 | ≥ 90 | ≥ 95 |
| CON=C1CCC(C(C#N)S(=O)(=O)CCC(F)(F)C(F)(F)F)CC1 (stereo not drawn) [present compound (55), 2-[4-(methoxyimino)cyclohexyl]-2-(3,3,4,4,4-pentafluorobutylsulfonyl)acetonitrile] |  |  | 100 | 90 | ≥ 90 | ≥ 95 |
| C#CC1CCC(C[S+]([O-])CCC(F)(F)F)CC1 (stereo not drawn) [present compound (26t), 1-ethynyl-4-(3,3,3-trifluoropropylsulfinylmethyl)cyclohexane] |  |  | 100 | 90 | ≥ 90 | ≥ 95 |
| N#CC(C1CCC(F)(F)CC1)S(=O)(=O)CCC(F)(F)F (stereo not drawn) [present compound (29), 2-(4,4-difluorocyclohexyl)-2-(3,3,3-trifluoropropylsulfonyl)acetonitrile] |  |  | 100 | 90 | ≥ 90 | ≥ 95 |
| C#CC1=CCC(CS(=O)(=O)CCC(F)(F)F)CC1 (stereo not drawn) |  |  | 100 | 90 | ≥ 90 | ≥ 95 |
| C#CC1(O)CCC(C(C#N)S(=O)(=O)CCC(F)(F)F)CC1 (stereo not drawn) [present compound (30), 2-(4-ethynyl-4-hydroxycyclohexyl)-2-(3,3,3-trifluoropropylsulfonyl)acetonitrile] |  |  | 100 | 90 | ≥ 90 |  |
| CCCC(C#N)(C1CCC(=NOC)CC1)S(=O)(=O)CCC(F)(F)F (stereo not drawn) [present compound (42), 2-[4-(methoxyimino)cyclohexyl]-2-(3,3,3-trifluoropropylsulfonyl)pentanenitrile] |  |  |  | 90 |  |  |
| CCON=C1CCC(C(C#N)S(=O)(=O)CCC(F)(F)F)CC1 (stereo not drawn) [present compound (35), 2-[4-(ethoxyimino)cyclohexyl]-2-(3,3,3-trifluoropropylsufonyl)acetonitrile] |  | 90 |  |  |  |  |
| C#CC1(F)CCC(CS(=O)(=O)CCC(F)(F)F)CC1 (stereo not drawn) [present compound (7)] |  |  | 100 | 90 | ≥ 90 | ≥ 95 |
| C#CC1CCC=CC1C(C#N)S(=O)(=O)CCC(F)(F)F (stereo not drawn) [present compound (32), 2-(4-ethynyl-cyclohexen-3-yl)-2-(3,3,3-trifluoropropylsulfonyl)acetonitrile] |  |  | 100 | 90 | ≥ 90 |  |
| C#CC(C)C(C#N)(C1CCC(=NOC)CC1)S(=O)(=O)CCC(F)(F)F (stereo not drawn) [present compound (44), 2-[4-(methoxyimino)cyclohexyl]-3-methyl-2-(3,3,3-trifluoropropylsulfonyl)-4-pentynenitrile] |  |  |  | 90 |  |  |
| C#CC1CCC(CSCCC(F)(F)F)CC1 (stereo not drawn) [present compound (25c)] |  |  | 100 |  | ≥ 90 | ≥ 95 |
| CON=C1CCC(C(C#N)S(=O)(=O)CCC(F)(F)F)CC1 (stereo not drawn) [present compound (33), 2-[4-(methoxyimino)cyclohexyl]-2-(3,3,3-trifluoropropylsulfonyl)acetonitrile] |  |  | 100 | 90 | ≥ 90 | ≥ 95 |
| C#CC1(F)CCC(C(C#N)S(=O)(=O)CCC(F)(F)F)CC1 (stereo not drawn) [present compound (31), 2-(4-ethynyl-4-fluorocyclohexyl)-2-(3,3,3-trifluoropropylsulfonyl)acetonitrile] |  |  | 100 | 90 | ≥ 90 |  |
| CCC(C#N)(C1CCC(=NOC)CC1)S(=O)(=O)CCC(F)(F)F (stereo not drawn) [present compound (41), 2-[4-(methoxyimino)cyclohexyl]-2-(3,3,3-trifluoropropylsulfonyl)butyronitrile] |  |  | 100 | 90 | ≥ 90 | ≥ 95 |

— patent US8247596B2 (Sumitomo Chemical Company, Limited, priority 2007, dated 2012)
